# Results reported in article PMC7829762, “Characterization of a Novel Laccase LAC-Yang1 from White-Rot Fungus Pleurotus ostreatus Strain Yang1 with a Strong Ability to Degrade and Detoxify Chlorophenols” (Molecules, 2021).
# System: T1, LAC-Yang1
# T1 construct: native enzyme purified from culture supernatant (Cu2+ and syringic acid induced; ammonium sulfate, DEAE, Phenyl-6FF); only laccase band secreted by this strain
# Experiment: absorbance assay, Michaelis-Menten non-linear regression
# Format: biochemical, Pleurotus ostreatus
# Conditions: 50 mM acetate buffer pH 5.0, 30 °C, free enzyme
# Description: absorbance assay, Michaelis-Menten non-linear regression on LAC-Yang1
compound,measurement,setting,value
"2,6-Dimethylphenol [2,6-DMP]",Km,"470 nm, compound identity doubtful: paper spells 2,6-DMP as 2,6-Dimethylphenol, but 470 nm read-out is usual for 2,6-dimethoxyphenol",120 ± 30 µM
COc1ccccc1O [guaiacol],Km,465 nm,810 ± 150 µM
"CCn1c(=NN=c2sc3cc(S(=O)(=O)O)ccc3n2CC)sc2cc(S(=O)(=O)O)ccc21 [ABTS, 2,2′-azino-bis-(3-ethylbenzothiazoline-6-sulfonic acid)]",Km,420 nm,150 ± 50 µM
